Data: patent US20110251068A1, “PARASITIC PLANT CONTROL AGENT AND PARASITIC PLANT CONTROL METHOD” (OSAKA UNIVERSITY, priority 2008, published 2011)

Legend:
Format in all cases: in vivo
Orobanche minor [1] = assay: Germination rate of Orobanche minor seeds in the presence of enzyme inhibitors (GR24-induced); settings: for influence on germination of Orobanche minor: applied concurrently with GR24 0.1 mg/L, observed after four days (FIG. 8); for germination rate: Orobanche minor seeds, with GR24 0.1 mg/L, four days after application (FIG. 8)
Source text: (§1) Surfaces of seeds of Orobanche minor and Striga gesnerioides were sterilized by use of an aqueous solution containing 1% SDS and 5% sodium hypochlorite. Thereafter, the seeds were washed five times by use of sterile distilled water. Subsequently, the seeds were subjected to suction filtration and then naturally dried. GF/A glass filter paper of Φ 47 mm was spread on a laboratory dish, a GF/D glass disk of 1 cm was placed on the GF/A glass filter paper, and approximately 50 grains of the seeds were sown on the GF/D glass disk. 1.5 mL of sterile water was placed in the laboratory dish, and conditioning was carried out in a dark place at 23° C. for seven days. The GF/D glass disk was taken out of the laboratory dish on the eighth day after the beginning of conditioning and then placed on new GF/A glass filter paper. 1.5 mL of a germination stimulant GR24 (0.1 mg/L) was applied to the seeds of Orobanche minor, so as to induce its germination. A root extract of cowpea (CP) was applied to the seeds of Striga gesnerioides, so as to induce its germination. Note that concurrently with GR24 or the root extract of cowpea, nojirimycin, deoxynojirimycin, or deoxygalactonojirimycin was applied to the seeds. Note that nojirimycin is a typical β-glucosidase activity inhibitor, deoxynojirimycin is a typical α-glucosidase activity inhibitor, and deoxygalactonojirimycin is a typical galactosidase activity inhibitor. Whether or not germination occurred was observed by microscopic observation four days after application of GR24 or the root extract of cowpea (CP) and the like to the seeds.

Striga gesnerioides [2] = assay: Selective inhibition of germination: parasitic plant Striga gesnerioides; settings: with root extract of cowpea, four days (FIG. 13)
Source text: (§2) It was examined whether or not germination inhibition caused by inhibition of gentianose metabolism was a selective phenomenon with respect to a parasitic plant. Note that nojirimycin was used as a typical gentianose metabolism inhibitor. Note also that Orobanche minor and Striga gesnerioides were used as typical parasitic plants and Trifolium pratense and Arabidopsis thaliana were used as typical non-parasitic plants. The following description specifically discusses how the examination was carried out. Surfaces of seeds of Orobanche minor, Striga gesnerioides, Arabidopsis thaliana, and Trifolium pratense were sterilized by use of an aqueous solution containing 1% SDS and 5% sodium hypochlorite. Thereafter, the seeds were washed five times by use of sterile distilled water. Subsequently, the seeds were subjected to suction filtration and then naturally dried. GF/A glass filter paper of Φ 47 mm was spread on a laboratory dish, a GF/D glass disk of 1 cm was placed on the GF/A glass filter paper, and approximately 50 grains of the seeds were sown on the GF/D glass disk. 1.5 mL of sterile water was placed in the laboratory dish, and conditioning was carried out in a dark place at 23° C. for seven days. The GF/D glass disk was taken out of the laboratory dish on the eighth day after the beginning of conditioning and then placed on new GF/A glass filter paper. […]

Trifolium pratense = assay: Selective inhibition of germination: non-parasitic plant Trifolium pratense; settings: only nojirimycin, no germination inducer, four days (FIG. 13)
Source text: as §2

Orobanche minor [3] = assay: Selective inhibition of germination: parasitic plant Orobanche minor; settings: with GR24 0.1 mg/L, four days (FIG. 13)
Source text: as §2

Arabidopsis thaliana = assay: Selective inhibition of germination: non-parasitic plant Arabidopsis thaliana; settings: only nojirimycin, no germination inducer, four days (FIG. 13)
Source text: as §2

Orobanche minor [4] = assay: Recovery of germination inhibition effect by addition of glucose; settings: Orobanche minor seeds, GR24 0.1 mg/L, nojirimycin with glucose 10 mM, four days (FIG. 9)
Protocol: The following description specifically discusses how the examination was carried out. Surfaces of seeds of Orobanche minor were sterilized by use of an aqueous solution containing 1% SDS and 5% sodium hypochlorite. Thereafter, the seeds were washed five times by use of sterile distilled water. Subsequently, the seeds were subjected to suction filtration and then naturally dried. GF/A glass filter paper of Φ 47 mm was spread on a laboratory dish, a GF/D glass disk of 1 cm was placed on the GF/A glass filter paper, and approximately 50 grains of the seeds were sown on the GF/D glass disk. 1.5 mL of sterile water was placed in the laboratory dish, and conditioning was carried out in a dark place at 23° C. for seven days. The GF/D glass disk was taken out of the laboratory dish on the eighth day after the beginning of conditioning and then placed on new GF/A glass filter paper. 1.5 mL of a germination stimulant GR24 (0.1 mg/L) was applied to the seeds, so as to induce its germination. Note that concurrently with GR24, nojirimycin or a mixture of nojirimycin and glucose (glucose concentration: 10 mM) was added to the seeds. Whether or not germination occurred was observed by microscopic observation four days after application of GR24 and the like to the seeds.

Striga gesnerioides [5] = assay: Germination rate of Striga gesnerioides seeds in the presence of nojirimycin (induced by root extract of cowpea); settings: for germination rate: Striga gesnerioides seeds, rate without nojirimycin taken as 100%, cowpea root extract, four days (FIG. 10)
Source text: as §1

Row | SMILES | influence on germination of Orobanche minor (Orobanche minor [1]) | germination rate (Orobanche minor [1]; concentration of 1 μM) | germination rate (Orobanche minor [1]; concentration of 10 μM) | germination rate (Orobanche minor [1]; concentration of not less than 25 μM) | inhibition of germination of Striga gesnerioides (parasitic plant) (Striga gesnerioides [2]) | inhibition of germination of Trifolium pratense (non-parasitic plant) (Trifolium pratense) | inhibition of germination of Orobanche minor (parasitic plant) (Orobanche minor [3]) | inhibition of germination of Arabidopsis thaliana (non-parasitic plant) (Arabidopsis thaliana) | germination recovery effect of glucose versus germination inhibition effect of nojirimycin (Orobanche minor [4]) | germination rate (Striga gesnerioides [5]; 1 μM) | germination rate (Striga gesnerioides [5]; 10 μM) | germination rate (Striga gesnerioides [5]; 50 μM) | germination rate (Striga gesnerioides [5]; 100 μM) | germination rate (Striga gesnerioides [5]; 1 mM) | influence on germination of Striga gesnerioides (Striga gesnerioides [5]; applied concurrently with root extract of cowpea, observed after four days (FIG. 10))
1 | OC[C@H]1NC[C@H](O)[C@@H](O)[C@@H]1O [deoxynojirimycin] | no influence on germination | – | – | – | – | – | – | – | – | – | – | – | – | – | –
2 | OC[C@H]1NC(O)[C@H](O)[C@@H](O)[C@@H]1O (some centres unmarked) [nojirimycin] | inhibited germination | approximately 20% | approximately 10% | approximately 0% | effectively inhibited germination | did not inhibit germination | effectively inhibited germination | did not inhibit germination | recovered by glucose | approximately 24.3% | ~7.5% | ~6.2% | ~0% | ~0% | inhibited germination
3 | OC[C@H]1NC[C@H](O)[C@@H](O)[C@H]1O [deoxygalactonojirimycin] | no influence on germination | – | – | – | – | – | – | – | – | – | – | – | – | – | –
